Experimental data taken from publication PMC6839570.

Assay: Thioether (C-S) macrocyclisation: SN2' of the free C-terminal Cys-NH2 thiol on an N-terminal O-acetyl Morita-Baylis-Hillman (2-methylene-3-acetoxyacyl) residue, Et3N 3% v/v, 48 h; crude cleaved linear peptides
Details: the molecule shown is the open-chain precursor, 16-membered ring, dry THF/CH2Cl2 1:1, 1.0 mM, 25.0 °C, 11 steps

Compound | ring closure, overall yield
C=C(C(=O)N[C@@H](C)C(=O)N[C@@H](CC(C)C)C(=O)N[C@@H](Cc1ccccc1)C(=O)N[C@@H](CS)C(N)=O)C(C)OC(C)=O (stereo partly drawn) [CH3CH(OAc)C(=CH2)CO-Ala-Leu-Phe-Cys-NH2] | 14.8%
C=C(C(=O)N[C@@H](Cc1ccccc1)C(=O)N[C@@H](CC(C)C)C(=O)N[C@H](C)C(=O)N[C@@H](CS)C(N)=O)C(C)OC(C)=O (stereo partly drawn) [CH3CH(OAc)C(=CH2)CO-Phe-Leu-D-Ala-Cys-NH2] | 2.7%
C=C(C(=O)N[C@@H](Cc1ccccc1)C(=O)N[C@H](CC(C)C)C(=O)N[C@@H](C)C(=O)N[C@@H](CS)C(N)=O)C(C)OC(C)=O (stereo partly drawn) [CH3CH(OAc)C(=CH2)CO-Phe-D-Leu-Ala-Cys-NH2] | 14.4%
C=C(C(=O)N[C@@H](Cc1ccccc1)C(=O)N[C@H](CC(C)C)C(=O)N[C@H](C)C(=O)N[C@@H](CS)C(N)=O)C(C)OC(C)=O (stereo partly drawn) [CH3CH(OAc)C(=CH2)CO-Phe-D-Leu-D-Ala-Cys-NH2] | 7.3%
C=C(C(=O)N[C@@H](Cc1ccccc1)C(=O)N[C@@H](CC(C)C)C(=O)N[C@H](C)C(=O)N[C@@H](CS)C(N)=O)C(CCCCCC)OC(C)=O (stereo partly drawn) [n-C6H13CH(OAc)C(=CH2)CO-Phe-Leu-D-Ala-Cys-NH2] | 4.7%
C=C(C(=O)N[C@@H](Cc1ccccc1)C(=O)N[C@H](CC(C)C)C(=O)N[C@H](C)C(=O)N[C@@H](CS)C(N)=O)C(CCCCCC)OC(C)=O (stereo partly drawn) [n-C6H13CH(OAc)C(=CH2)CO-Phe-D-Leu-D-Ala-Cys-NH2] | 11.8%
C=C(C(=O)N[C@@H](Cc1ccccc1)C(=O)N[C@@H](CC(C)C)C(=O)N[C@@H](C)C(=O)N[C@@H](CS)C(N)=O)C(C)OC(C)=O (stereo partly drawn) [CH3CH(OAc)C(=CH2)CO-Phe-Leu-Ala-Cys-NH2] | 10.2%
